These are literature values, as cited in patent US7485658B2, “N-substituted pyrazolyl-amidyl-benzimidazolyl c-Kit inhibitors” (OSI Pharmaceuticals, Inc., priority 2003, dated 2009).

In data set [1] the test system is MO7e human leukemia cells.
For data set [2], the system named is MO7e human leukemia cells. This is another data set of the same source.

Structures can show the parent of a compound that is named as a salt.

As for `Cc1ccc(NC(=O)c2ccc(CN3CCN(C)CC3)cc2)cc1Nc1nccc(-c2cccnc2)n1` [Gleevec, imatinib mesylate], the “Kit ligand-stimulated growth of MO7e cells” value in data set [1] (Kit ligand stimulated) is reported as “inhibited”. Further, in data set [1] (Kit ligand stimulated conditions), the “apoptosis in MO7e cells” value is “induces apoptosis”. Also, the “GM-CSF stimulated growth of MO7e cells” value in data set [2] is reported as “not affected”.
